Experimental findings from patent US20210122730A1, “GLUCOCORTICOID RECEPTOR MODULATORS” (ORIC Pharmaceuticals, Inc., priority 2017, published 2021) are described below.

Some results are limits rather than exact numbers.

One data set deals with T1, GR (Homo sapiens, UniProt P04150).
T1 construct: expressed in transfected cells; host or cells: CHO-K1
T1 sequence (P04150 1-777): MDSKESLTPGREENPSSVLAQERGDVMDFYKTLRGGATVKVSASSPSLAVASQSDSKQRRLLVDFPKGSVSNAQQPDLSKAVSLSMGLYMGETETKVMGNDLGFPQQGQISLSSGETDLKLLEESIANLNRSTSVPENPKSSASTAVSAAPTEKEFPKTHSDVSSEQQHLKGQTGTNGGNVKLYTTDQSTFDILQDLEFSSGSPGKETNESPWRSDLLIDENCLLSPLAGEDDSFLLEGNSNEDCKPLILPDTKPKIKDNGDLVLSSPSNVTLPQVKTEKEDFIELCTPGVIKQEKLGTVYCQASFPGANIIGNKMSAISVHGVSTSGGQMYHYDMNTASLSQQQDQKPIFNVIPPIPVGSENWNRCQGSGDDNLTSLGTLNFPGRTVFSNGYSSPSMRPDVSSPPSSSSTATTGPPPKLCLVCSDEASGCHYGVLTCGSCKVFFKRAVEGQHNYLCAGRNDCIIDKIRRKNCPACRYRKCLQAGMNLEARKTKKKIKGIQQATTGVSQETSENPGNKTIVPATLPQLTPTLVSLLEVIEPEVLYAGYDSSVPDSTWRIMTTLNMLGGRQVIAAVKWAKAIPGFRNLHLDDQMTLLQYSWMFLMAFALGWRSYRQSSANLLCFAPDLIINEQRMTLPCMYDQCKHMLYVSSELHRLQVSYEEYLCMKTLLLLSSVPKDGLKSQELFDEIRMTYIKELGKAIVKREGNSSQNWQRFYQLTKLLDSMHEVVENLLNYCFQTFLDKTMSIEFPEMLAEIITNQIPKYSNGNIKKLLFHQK
In words: In Vitro GR Luciferase Reporter Assay (antagonist mode, CHO-K1-GR-MMTV-Luc reporter cells). In kind it is cell-based. As to conditions: antagonist mode, 10 nM Dexamethasone. The essentials:
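CHO-K1-GR-MMTV-Luc cells in phenol red-free DMEM with 10% CSS, stimulated with 10 nM dexamethasone (final) and treated with 8-point 1:5 compound dilutions for about 18-24 h at 37° C. Luciferase measured by OneGlo luminescence; IC50 derived for inhibition of GR activity.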

The next data set deals with T2, CYP2C8 (Homo sapiens, UniProt P10632).
T2 construct: Pooled human microsomes were obtained from Sekisui XenoTech, KS; tissue Sekisui XenoTech, KS; host or cells: pooled human liver microsomes
T2 sequence (P10632 1-490): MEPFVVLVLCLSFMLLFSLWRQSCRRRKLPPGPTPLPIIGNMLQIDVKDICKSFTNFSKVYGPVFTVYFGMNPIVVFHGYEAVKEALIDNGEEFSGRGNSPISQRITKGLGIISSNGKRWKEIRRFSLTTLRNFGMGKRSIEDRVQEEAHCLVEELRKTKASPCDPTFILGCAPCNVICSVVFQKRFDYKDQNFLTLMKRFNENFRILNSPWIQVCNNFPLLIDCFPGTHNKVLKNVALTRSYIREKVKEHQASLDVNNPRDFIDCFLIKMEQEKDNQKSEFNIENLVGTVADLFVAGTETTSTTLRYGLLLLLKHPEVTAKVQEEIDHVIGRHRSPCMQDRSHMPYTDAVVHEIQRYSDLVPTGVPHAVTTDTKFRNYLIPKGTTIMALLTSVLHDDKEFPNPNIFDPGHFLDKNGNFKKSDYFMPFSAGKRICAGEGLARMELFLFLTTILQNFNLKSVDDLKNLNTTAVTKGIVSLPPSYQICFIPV
Kind of data set: CYP Inhibition Assay (CYP2C8, human liver microsomes, paclitaxel substrate). As to conditions: pH 7.4; pooled human liver microsomes 0.1 mg/mL, probe substrate paclitaxel. The data set is classed as in vitro ADME. The essentials: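 Pooled human liver microsomes (0.1 mg/mL) in 50 mM potassium phosphate pH 7.4 with compound, started with 1 mM NADPH, 5 min at 37° C, duplicate.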
For orientation: Liver microsomes are vesicles of endoplasmic reticulum, rich in cytochrome P450 enzymes.

The term IC50 denotes the concentration at which inhibition is half-maximal. Read a low IC50 as greater potency in that assay. By inhibition is commonly meant the share of the control response that was lost under treatment. Read a low inhibition as a response near the control. Compound `Cn1ccc(S(=O)(=O)N(CC(F)F)[C@H]2CCC3=Cc4c(cnn4-c4ccc(F)cc4)C[C@]3(C(=O)c3cc(C(F)(F)F)ccn3)C2)n1` [Example 313, N-(2,2-difluoroethyl)-N-((4aS,6S)-1-(4-fluorophenyl)-4a-(4-(trifluoromethyl)picolinoyl)-4,4a,5,6,7,8-hexahydro-1H-benzo[f]indazol-6-yl)-1-methyl-1H-pyrazole-3-sulfonamide] gave a half-inhibitory concentration (IC50) against GR of at most 100 nM. The inhibition at 5 min against CYP2C8 lay within 25 to 50%.

`Cn1cnc(S(=O)(=O)N(CC2CC2)[C@H]2CCC3=Cc4c(cnn4-c4ccc(F)cc4)C[C@]3(C(=O)c3ncc(C(F)(F)F)s3)C2)n1` [Example 315, N-(cyclopropylmethyl)-N-((4aS,6S)-1-(4-fluorophenyl)-4a-(5-(trifluoromethyl)thiazole-2-carbonyl)-4,4a,5,6,7,8-hexahydro-1H-benzo[f]indazol-6-yl)-1-methyl-1H-1,2,4-triazole-3-sulfonamide] registered an IC50 at GR of at most 100 nM. The compound also came in with an inhibition at 5 min against CYP2C8 of 25 to 50%.

The compound `O=C(c1cc(F)ccn1)[C@]12Cc3cnn(-c4ccc(F)cc4)c3C=C1CC[C@H](N(CC1CC1)S(=O)(=O)c1ccc(Cl)nc1)C2` [Example 319, 6-chloro-N-(cyclopropylmethyl)-N-((4aS,6S)-1-(4-fluorophenyl)-4a-(4-fluoropicolinoyl)-4,4a,5,6,7,8-hexahydro-1H-benzo[f]indazol-6-yl)pyridine-3-sulfonamide] gave an IC50 against GR of at most 100 nM. Besides, at CYP2C8, the inhibition at 5 min lay in the range of 50 to 75%.

Take `O=C(c1cc(F)ccn1)[C@]12Cc3cnn(-c4ccc(F)cc4)c3C=C1CC[C@H](N(C1CC1)S(=O)(=O)c1ccc(Cl)nc1)C2` [Example 320, 6-chloro-N-cyclopropyl-N-((4aS,6S)-1-(4-fluorophenyl)-4a-(4-fluoropicolinoyl)-4,4a,5,6,7,8-hexahydro-1H-benzo[f]indazol-6-yl)pyridine-3-sulfonamide]: the half-inhibitory concentration (IC50) on GR is at most 100 nM. At CYP2C8, this compound came in with an inhibition at 5 min of 25 to 50%.

At GR, `O=C(c1cc(Cl)ccn1)[C@]12Cc3cnn(-c4ccc(F)cc4)c3C=C1CC[C@H](N(C1CC1)S(=O)(=O)c1ccc(Cl)nc1)C2` [Example 321, 6-chloro-N-((4aS,6S)-4a-(4-chloropicolinoyl)-1-(4-fluorophenyl)-4,4a,5,6,7,8-hexahydro-1H-benzo[f]indazol-6-yl)-N-cyclopropylpyridine-3-sulfonamide] came in with an IC50 of at most 100 nM. The compound also yielded an inhibition at 5 min at CYP2C8 of at most 25%.

Take `CC(C)N([C@H]1CCC2=Cc3c(cnn3-c3ccc(F)cc3)C[C@]2(C(=O)c2cc(F)ccn2)C1)S(=O)(=O)c1ccc(Cl)nc1` [Example 322, 6-chloro-N-((4aS,6S)-1-(4-fluorophenyl)-4a-(4-fluoropicolinoyl)-4,4a,5,6,7,8-hexahydro-1H-benzo[f]indazol-6-yl)-N-isopropylpyridine-3-sulfonamide]: at GR, the half-maximal inhibitory concentration (IC50) is at most 100 nM. In addition, on CYP2C8, the inhibition at 5 min was in the range of 25 to 50%.

`Cn1cnc(S(=O)(=O)N(C2CC(F)(F)C2)[C@H]2CCC3=Cc4c(cnn4-c4ccc(F)cc4)C[C@]3(C(=O)c3ncc(C(F)(F)F)s3)C2)n1` [Example 324, N-(3,3-difluorocyclobutyl)-N-((4aS,6S)-1-(4-fluorophenyl)-4a-(5-(trifluoromethyl)thiazole-2-carbonyl)-4,4a,5,6,7,8-hexahydro-1H-benzo[f]indazol-6-yl)-1-methyl-1H-1,2,4-triazole-3-sulfonamide] registered an IC50 at GR of at most 100 nM. For the same compound, at CYP2C8, the inhibition at 5 min was in the range of 25 to 50%.

Compound `Cn1cnc(S(=O)(=O)N(C2CC(F)(F)C2)[C@H]2CCC3=Cc4c(cnn4-c4ccc(F)cc4)C[C@]3(C(=O)c3cc(C(F)(F)F)ccn3)C2)c1` [Example 325, N-(3,3-difluorocyclobutyl)-N-((4aS,6S)-1-(4-fluorophenyl)-4a-(4-(trifluoromethyl)picolinoyl)-4,4a,5,6,7,8-hexahydro-1H-benzo[f]indazol-6-yl)-1-methyl-1H-imidazole-4-sulfonamide] gave a half-inhibitory concentration (IC50) against GR of at most 100 nM. The inhibition at 5 min on CYP2C8 is at most 25%.

On GR, `Cn1ccc(S(=O)(=O)N([C@H]2CCC3=Cc4c(cnn4-c4ccc(F)cc4)C[C@]3(C(=O)c3ncc(C(F)(F)F)s3)C2)[C@H]2C[C@](C)(O)C2)n1` [Example 326, N-((4aS,6S)-1-(4-fluorophenyl)-4a-(5-(trifluoromethyl)thiazole-2-carbonyl)-4,4a,5,6,7,8-hexahydro-1H-benzo[f]indazol-6-yl)-N-((1r,3S)-3-hydroxy-3-methylcyclobutyl)-1-methyl-1H-pyrazole-3-sulfonamide] yielded an IC50 of at most 100 nM. The inhibition at 5 min against CYP2C8 is 50 to 75%.

In the case of `CC(C)N([C@H]1CCC2=Cc3c(cnn3-c3ccc(F)cc3)C[C@]2(C(=O)c2ncc(C(F)(F)F)s2)C1)S(=O)(=O)c1ncn(C)n1` [Example 327, N-((4aS,6S)-1-(4-fluorophenyl)-4a-(5-(trifluoromethyl)thiazole-2-carbonyl)-4,4a,5,6,7,8-hexahydro-1H-benzo[f]indazol-6-yl)-N-isopropyl-1-methyl-1H-1,2,4-triazole-3-sulfonamide], at GR, the IC50 was at most 100 nM. The compound further yielded an inhibition at 5 min against CYP2C8 of 25 to 50%.

`CC(C)N([C@H]1CCC2=Cc3c(cnn3-c3ccc(F)cc3)C[C@]2(C(=O)c2cc(C(F)(F)F)ccn2)C1)S(=O)(=O)c1ncn(C)n1` [Example 328, N-((4aS,6S)-1-(4-fluorophenyl)-4a-(4-(trifluoromethyl)picolinoyl)-4,4a,5,6,7,8-hexahydro-1H-benzo[f]indazol-6-yl)-N-isopropyl-1-methyl-1H-1,2,4-triazole-3-sulfonamide] showed an IC50 against GR of at most 100 nM. Further, the inhibition at 5 min against CYP2C8 fell in the range of 25 to 50%.

For `Cn1cnc(S(=O)(=O)N(C2CC(F)(F)C2)[C@H]2CCC3=Cc4c(cnn4-c4ccc(F)cc4)C[C@]3(C(=O)c3cc(C(F)(F)F)ccn3)C2)n1` [Example 329, N-(3,3-difluorocyclobutyl)-N-((4aS,6S)-1-(4-fluorophenyl)-4a-(4-(trifluoromethyl)picolinoyl)-4,4a,5,6,7,8-hexahydro-1H-benzo[f]indazol-6-yl)-1-methyl-1H-1,2,4-triazole-3-sulfonamide], the IC50 against GR was at most 100 nM. Moreover, on CYP2C8, the inhibition at 5 min was in the range of 25 to 50%.

Regarding `Cn1cnc(S(=O)(=O)N(CC(F)F)[C@H]2CCC3=Cc4c(cnn4-c4ccc(F)cc4)C[C@]3(C(=O)c3cc(C(F)(F)F)ccn3)C2)n1` [Example 330, N-(2,2-difluoroethyl)-N-((4aS,6S)-1-(4-fluorophenyl)-4a-(4-(trifluoromethyl)picolinoyl)-4,4a,5,6,7,8-hexahydro-1H-benzo[f]indazol-6-yl)-1-methyl-1H-1,2,4-triazole-3-sulfonamide], the IC50 on GR was at most 100 nM. This compound registered an inhibition at 5 min on CYP2C8 of 25 to 50%.

The compound `Cn1cnc(S(=O)(=O)N(CC(F)F)[C@H]2CCC3=Cc4c(cnn4-c4ccc(F)cc4)C[C@]3(C(=O)c3ncc(C(F)(F)F)s3)C2)n1` [Example 331, N-(2,2-difluoroethyl)-N-((4aS,6S)-1-(4-fluorophenyl)-4a-(5-(trifluoromethyl)thiazole-2-carbonyl)-4,4a,5,6,7,8-hexahydro-1H-benzo[f]indazol-6-yl)-1-methyl-1H-1,2,4-triazole-3-sulfonamide] yielded a concentration for half-maximal inhibition (IC50) against GR of at most 100 nM. In addition, the inhibition at 5 min at CYP2C8 was at most 25%.

At GR, `Cn1cnc(S(=O)(=O)N(C2CC(F)(F)C2)[C@H]2CCC3=Cc4c(cnn4-c4ccc(F)cc4)C[C@]3(C(=O)c3ncc(C(F)(F)F)s3)C2)c1` [Example 332, N-(3,3-difluorocyclobutyl)-N-((4aS,6S)-1-(4-fluorophenyl)-4a-(5-(trifluoromethyl)thiazole-2-carbonyl)-4,4a,5,6,7,8-hexahydro-1H-benzo[f]indazol-6-yl)-1-methyl-1H-imidazole-4-sulfonamide] yielded an IC50 of at most 100 nM. At CYP2C8, this compound showed an inhibition at 5 min of at most 25%.
